According to patent publication US20230023559A1, “ARYLMETHYLENE HETEROCYCLIC COMPOUNDS AS KV1.3 POTASSIUM SHAKER CHANNEL BLOCKERS” (D. E. Shaw Research, LLC, priority 2019, published 2023):

Assays:
[1] = target: T1, Kv1.3 potassium channel (Homo sapiens, UniProt P22001); assay: Kv1.3 potassium channel blocker activity, automated whole-cell patch clamp (Patchliner); assay type: cell-based; conditions: CHO-K1 cells stably expressing Kv1.3; whole cell current inhibition; read-out: Kv1.3_IC50
T1 construct: expressed in transfected cells
Summary of the method: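 CHO-K1 cells stably expressing Kv1.3, automated whole-cell patch clamp. Currents evoked by 100 ms steps from −90 mV holding to +40 mV at 0.1 Hz, sampled at 10 kHz unfiltered, P/4 leak subtraction; peak current inhibition measured, compound incubation ≤10 s between pulse trains.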

[2] = target: hERG channel (Homo sapiens, UniProt Q12809); assay: hERG electrophysiology, automated whole-cell patch clamp (Patchliner)
Sequence of hERG channel (Q12809 whole entry): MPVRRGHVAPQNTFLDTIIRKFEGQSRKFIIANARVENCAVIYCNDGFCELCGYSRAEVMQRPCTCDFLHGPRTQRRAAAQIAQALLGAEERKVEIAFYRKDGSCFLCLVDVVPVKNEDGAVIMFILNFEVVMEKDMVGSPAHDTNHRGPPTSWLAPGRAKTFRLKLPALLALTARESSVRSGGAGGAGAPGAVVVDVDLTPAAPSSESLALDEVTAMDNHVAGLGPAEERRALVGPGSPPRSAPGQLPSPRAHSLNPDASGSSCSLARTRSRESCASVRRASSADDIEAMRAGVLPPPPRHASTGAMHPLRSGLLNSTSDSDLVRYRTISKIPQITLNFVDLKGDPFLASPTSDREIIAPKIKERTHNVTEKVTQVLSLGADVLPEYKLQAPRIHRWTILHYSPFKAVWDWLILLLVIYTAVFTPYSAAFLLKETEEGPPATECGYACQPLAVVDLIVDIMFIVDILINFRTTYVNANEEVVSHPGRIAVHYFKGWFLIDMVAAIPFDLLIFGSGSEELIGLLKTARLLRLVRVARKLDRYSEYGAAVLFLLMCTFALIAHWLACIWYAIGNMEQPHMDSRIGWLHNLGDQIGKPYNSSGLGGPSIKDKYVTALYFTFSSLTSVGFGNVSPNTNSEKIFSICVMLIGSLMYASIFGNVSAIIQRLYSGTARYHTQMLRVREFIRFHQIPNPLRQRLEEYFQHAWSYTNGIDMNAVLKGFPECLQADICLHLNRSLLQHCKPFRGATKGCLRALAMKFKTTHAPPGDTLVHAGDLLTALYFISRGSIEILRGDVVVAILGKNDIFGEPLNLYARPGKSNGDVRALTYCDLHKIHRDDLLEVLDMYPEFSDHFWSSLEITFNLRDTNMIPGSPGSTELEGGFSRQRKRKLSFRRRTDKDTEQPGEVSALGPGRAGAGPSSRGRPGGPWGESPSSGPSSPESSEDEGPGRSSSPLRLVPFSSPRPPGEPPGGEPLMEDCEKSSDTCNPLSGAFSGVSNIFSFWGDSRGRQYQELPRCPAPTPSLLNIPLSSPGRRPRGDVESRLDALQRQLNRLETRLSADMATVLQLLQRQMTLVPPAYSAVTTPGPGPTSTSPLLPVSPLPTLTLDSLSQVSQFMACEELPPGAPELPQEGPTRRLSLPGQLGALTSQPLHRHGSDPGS

T1 sequence (P22001 whole entry): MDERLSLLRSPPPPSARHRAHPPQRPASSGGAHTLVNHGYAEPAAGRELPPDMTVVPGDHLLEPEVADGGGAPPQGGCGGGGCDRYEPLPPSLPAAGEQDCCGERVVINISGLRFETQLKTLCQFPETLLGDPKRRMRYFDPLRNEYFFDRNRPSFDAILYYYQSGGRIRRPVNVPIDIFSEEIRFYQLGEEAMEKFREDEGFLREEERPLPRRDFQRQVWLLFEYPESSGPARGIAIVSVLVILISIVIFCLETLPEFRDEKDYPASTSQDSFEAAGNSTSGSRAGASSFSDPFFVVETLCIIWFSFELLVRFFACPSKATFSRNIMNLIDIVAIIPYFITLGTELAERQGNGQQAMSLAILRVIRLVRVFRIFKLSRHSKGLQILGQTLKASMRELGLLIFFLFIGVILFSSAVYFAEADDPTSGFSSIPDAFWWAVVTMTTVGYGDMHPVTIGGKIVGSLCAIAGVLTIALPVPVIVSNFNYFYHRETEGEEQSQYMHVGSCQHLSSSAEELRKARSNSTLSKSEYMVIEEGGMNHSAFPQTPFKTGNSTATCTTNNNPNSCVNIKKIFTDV

SMILES	IC50 [1] [µM]	IC50 [2] [µM]
N[C@@H](c1cc(Cl)c(Cl)cc1O)C1CCN(C(=O)[C@@H]2COCCO2)CC1 [Compound 170, 2-[(R)-amino([1-[(2S)-1,4-dioxane-2-carbonyl]piperidin-4-yl])methyl]-4,5-dichlorophenol trifluoroacetic acid]	< 10	< 30
Cc1cc(O)c([C@H](N)C2CCN(C(=O)[C@H](O)CO)CC2)c(F)c1Cl [Compound 244, (2R)-1-[4-[(R)-amino(3-chloro-2-fluoro-6-hydroxy-4-methylphenyl)methyl]piperidin-1-yl]-2,3-dihydroxypropan-1-one]	< 0.5	> 30
Oc1cc(Cl)c(Cl)cc1[C@@H](O)C1CCNCC1 (single isomer, unassigned) [Compound 6]	< 10	> 30
CCc1cc(O)c([C@H](N)C2CCN(C(=O)[C@H](O)CO)CC2)cc1Cl [Compound 292, (2R)-1-[4-[(R)-amino(5-chloro-4-ethyl-2-hydroxyphenyl)methyl]piperidin-1-yl]-2,3-dihydroxypropan-1-one Trifluoroacetic Acid]	< 0.5	> 30
NC(c1c(O)cc(Cl)c(Cl)c1Cl)C1CCNCC1 (stereo not shown) [Compound 37, 2-[amino(piperidin-4-yl)methyl]-3,4,5-trichlorophenol Trifluoroacetic Acid]	< 10	> 30
Nc1nnc(N2CCC([C@@H](N)c3cc(Cl)c(Cl)cc3O)CC2)s1 [Compound 151, 2-[(R)-amino[1-(5-amino-1,3,4-thiadiazol-2-yl)piperidin-4-yl]methyl]-4,5-dichlorophenol Trifluoroacetic Acid]	< 10	< 30
Cc1cc(O)c([C@H](N)C2CCN(C(=O)[C@@H]3CCNC3)CC2)cc1Cl [Compound 237, (4-((R)-amino(5-chloro-2-hydroxy-4-methylphenyl)methyl)piperidin-1-yl)((R)-pyrrolidin-3-yl)methanone trifluoroacetic acid]	< 0.5	> 30
CN1C(=O)CC[C@@H]1C(=O)N1CCC([C@@H](N)c2cc(Cl)c(Cl)cc2O)CC1 [Compound 216, (5R)-5-[4-[(R)-amino(4,5-dichloro-2-hydroxyphenyl)methyl]piperidine-1-carbonyl]-1-methylpyrrolidin-2-one]	< 10	> 30
O=C([C@@H]1CCNC1)N1CCC(C(O)c2cc(Cl)c(Cl)cc2O)CC1 (stereo partly drawn) [Compound 101, 4,5-dichloro-2-[hydroxy([1-[(3R)-pyrrolidine-3-carbonyl]piperidin-4-yl])methyl]phenol]	< 0.5	> 30
Cc1cc(O)c([C@H](N)C2CCN(C(=O)c3ccc4nccn4c3)CC2)cc1Cl [Compound 238, 2-[(R)-amino(1-[imidazo[1,2-a]pyridine-6-carbonyl]piperidin-4-yl)methyl]-4-chloro-5-methylphenol trifluoroacetic acid]	< 0.5	< 30
N[C@@H](c1cc(Cl)c(Cl)cc1O)C1CCN(C(=O)[C@H]2CC[C@H](O)C2)CC1 (single isomer, unassigned; isomer 1) [Compound 177]	< 10	< 30
Nc1ccc(N2CCC([C@@H](N)c3cc(Cl)c(Cl)cc3O)CC2)nc1 [Compound 147, (R)-2-(amino(1-(5-aminopyridin-2-yl)piperidin-4-yl)methyl)-4,5-dichlorophenol Trifluoroacetic Acid]	< 0.5	< 30
Cc1cc(O)c([C@H](N)C2CCN(C(=O)CO)CC2)cc1Cl [Compound 233, (R)-1-(4-(amino(5-chloro-2-hydroxy-4-methylphenyl)methyl)piperidin-1-yl)-2-hydroxyethan-1-one trifluoroacetic acid]	< 0.5	> 30
N[C@@H](c1c(O)cc(Cl)c(Cl)c1F)C1CCN(C(=O)c2ccc(=O)[nH]c2)CC1 [Compound 257, 5-[4-[(R)-amino(3,4-dichloro-2-fluoro-6-hydroxyphenyl)methyl]piperidine-1-carbonyl]-1H-pyridin-2-one Trifluoroacetic Acid]	< 0.5	> 30
CC(=O)N1CCC(C(O)c2cc(Cl)c(Cl)cc2O)CC1 (stereo not shown) [Compound 4, 1-(4-((4,5-dichloro-2-hydroxyphenyl)(hydroxy)methyl)piperidin-1-yl)ethanone]	< 10	> 30

Continued, in another order:

IC50 [1] [µM]	SMILES	IC50 [2] [µM]
< 10	CN(C)C(=O)N1CCC(C(N)c2cc(Cl)c(Cl)cc2O)CC1 (stereo not shown) [Compound 46, 4-(amino(4,5-dichloro-2-hydroxyphenyl)methyl)-N,N-dimethylpiperidine-1-carboxamide]	< 30
< 0.5	N[C@@H](c1cc(Cl)c(Cl)cc1O)C1CCN(C(=O)c2cn[nH]c2)CC1 [Compound 131, 2-[(R)-amino[1-(1H-pyrazole-4-carbonyl)piperidin-4-yl]methyl]-4,5-dichlorophenol trifluoroacetic acid]	> 30
< 10	N[C@@H](c1cc(Cl)c(Cl)cc1O)C1CCN(c2ccc(O)nc2)CC1 [Compound 302, (R)-5-(4-(amino(4,5-dichloro-2-hydroxyphenyl)methyl)piperidin-1-yl)pyridin-2-ol]	> 30
< 0.5	CC1(C(=O)N2CCC([C@@H](N)c3cc(Cl)c(Cl)cc3O)CC2)CNC1 [Compound 109, (R)-(4-(amino(4,5-dichloro-2-hydroxyphenyl)methyl)piperidin-1-yl)(3-methylazetidin-3-yl)methanone]	> 30
< 0.5	N[C@@H](c1cc(Cl)c(Cl)cc1O)C1CCN(C(=O)Cc2cn[nH]c2)CC1 [Compound 162, 1-[4-[(R)-amino(4,5-dichloro-2-hydroxyphenyl)methyl]piperidin-1-yl]-2-(1H-pyrazol-4-yl)ethan-1-one trifluoroacetic acid]	> 30
< 0.5	N[C@@H](c1cc(Cl)c(Cl)cc1O)C1CCN(C(=O)[C@H]2CNC(=O)OC2)CC1 (single isomer, unassigned; isomer 1) [Compound 338]	> 30
< 10	C[C@@](O)(CO)C(=O)N1CCC([C@@H](N)c2cc(Cl)c(Cl)cc2O)CC1 (single isomer, unassigned; isomer 1) [Compound 217]	> 30
< 0.5	N[C@@H](c1cc(Cl)c(Cl)cc1O)C1CCN(C(=O)[C@@H]2CCNC2)CC1 (single isomer, unassigned) [Compound 80]	> 30
< 0.5	N[C@@H](c1cc(Cl)c(Cl)cc1O)C1CCN(C(=O)[C@@H]2CNCCO2)CC1 [Compound 99, (4-((R)-amino(4,5-dichloro-2-hydroxyphenyl)methyl)piperidin-1-yl)((S)-morpholin-2-yl)methanone]	> 30
< 10	N[C@@H](c1cc(Cl)c(Cl)cc1O)C1CCN(C(=O)C2CC(F)(F)C2)CC1 [Compound 161, 2-[(R)-amino[1-(3,3-difluorocyclo-butanecarbonyl)piperidin-4-yl]methyl]-4,5-dichlorophenol]	< 30
< 0.5	N[C@@H](c1cc(Cl)c(Cl)cc1O)C1CCN(C(=O)[C@@H]2CNC(=O)C2)CC1 [Compound 224, (4S)-4-[4-[(R)-amino(4,5-dichloro-2-hydroxyphenyl)methyl]piperidine-1-carbonyl] pyrrolidin-2-one trifluoroacetic acid]	> 30
< 10	N[C@@H](c1cc(Cl)c(Cl)cc1O)C1CCN(C(=O)[C@@H]2CCC(=O)N2)CC1 [Compound 166, (5S)-5-[4-[(R)-amino(4,5-dichloro-2-hydroxyphenyl)methyl]piperidine-1-carbonyl] pyrrolidin-2-one trifluoroacetic acid]	> 30
< 10	CC(C)C(=O)N1CCC(C(N)c2cc(Cl)c(Cl)cc2O)CC1 (stereo not shown) [Compound 43, 1-[4-[amino(4,5-dichloro-2-hydroxyphenyl)methyl]piperidin-1-yl]-2-methylpropan-1-one Trifluoroacetic Acid]	< 30
< 0.5	C[C@@H](O)[C@@H](N)C(=O)N1CCC([C@@H](N)c2cc(Cl)c(Cl)cc2O)CC1 [Compound 199, (2R,3R)-2-amino-1-[4-[(R)-amino(4,5-dichloro-2-hydroxyphenyl)methyl]piperidin-1-yl]-3-hydroxybutan-1-one trifluoroacetic acid]	> 30
< 0.5	C[C@H](N)C(=O)N1CCC([C@@H](N)c2cc(Cl)c(Cl)cc2O)CC1 (single isomer, unassigned) [Compound 76]	> 30
< 10	CO[C@@H](CO)C(=O)N1CCC([C@@H](N)c2cc(Cl)c(Cl)cc2O)CC1 [Compound 185, (2S)-1-[4-[(R)-amino(4,5-dichloro-2-hydroxyphenyl)methyl]piperidin-1-yl]-3-hydroxy-2-methoxypropan-1-one trifluoroacetic acid]	> 30
< 0.5	N[C@@H](c1cc(Cl)c(Cl)cc1O)C1CCN(C(=O)[C@H]2CCC(=O)NC2)CC1 (single isomer, unassigned; isomer 1) [Compound 221]	> 30
< 0.5	N[C@@H](c1cc(Cl)c(Cl)cc1O)C1CCN(C(=O)[C@H]2CNC(=O)C2)CC1 (single isomer, unassigned; isomer 2) [Compound 246]	> 30
< 10	N[C@@H](c1cc(Cl)c(Cl)cc1O)C1CCN(C(=O)C2(O)CC2)CC1 [Compound 140, 2-[(R)-amino[1-(1-hydroxycyclo-propanecarbonyl)piperidin-4-yl]methyl]-4,5-dichlorophenol trifluoroacetic acid]	< 30
< 0.5	N[C@H](CO)C(=O)N1CCC([C@@H](N)c2cc(Cl)c(Cl)cc2O)CC1 [Compound 171, (2R)-2-amino-1-[4-[(R)-amino(4,5-dichloro-2-hydroxyphenyl)methyl]piperidin-1-yl]-3-hydroxypropan-1-one]	> 30
